Source: patent publication US20090162413A1 (priority 1998, published 2009)

Key:
[1] = test system: human coronary artery smooth muscle cells (hCaSMC); test: 3H-thymidine uptake proliferation assay, hCaSMC; type: cell-based; details: Homo sapiens; read-out: hCaSMC IC50 Mean ± SEM
Protocol: Experiments were performed to investigate interactions between zotarolimus (ABT-578) and paclitaxel when administered in combination. The effects of paclitaxel and zotarolimus on the anti-proliferative activity of human coronary artery smooth muscle ([…]) and endothelial […] determined using an in vitro proliferation assay. The proliferation and migration of vascular smooth muscle cells into the vascular neointima is a characteristic pathologic response seen in restenotic lesions (Lafont and Libby, 1998). As a result, in vitro assays which specifically measure the anti-proliferative activity of candidate anti-restenotic compounds on human coronary artery smooth muscle and endothelial cells predict potential anti-restenotic activity in vivo. Compounds or combinations of compounds which attenuate growth factor-mediated human coronary artery smooth muscle cell ([…]) proliferation, as measured by the tritium incorporation assay in vitro, are candidate anti-restenotic agents. The tritium incorporation assay is an accurate and sensitive method to determine cell number and proliferation. […] The attenuation of zotarolimus's anti-proliferative activity by tacrolimus is a clear example of this effect (FIG. 10A). To determine the potential anti-restenotic activity of combinations of zotarolimus and paclitaxel, the proliferation of […] was measured in the presence of each compound and in combination. To determine if paclitaxel attenuated or augmented the activity of zotarolimus the effect of paclitaxel and zotarolimus alone and in combination on growth-factor induced proliferation was determined. Data were analyzed for additivity using an isobologram approach and a combination index analysis. An isobologram is a Cartesian plot of pairs of doses that, in combination, yield a specified level of effect. It is a convenient way of graphically displaying results of drug-combination and similar studies, because paired values of experimental points that fall below or above the line connecting the axial points indicate synergistic and non-synergistic interactions, respectively. Cell proliferation was monitored by following incorporation of ^3H-thymidine into newly synthesized DNA of cells stimulated by serum and growth factors. Exponentially growing […] were seeded into 96-well flat bottom tissue culture plates at 5,000 cells/well (10,000 cells/well for […]). The cells were allowed to attach overnight. The growth medium was removed the following day, and cells were washed twice with un-supplemented (basal) medium to remove traces of serum and growth factors. […] PerkinElmer; Wellesley; MA) was added to each filter well and the plates were counted using a TopCount microplate scintillation counter (PerkinElmer). […]

[2] = test system: human coronary artery endothelial cells (hCaEC); test: 3H-thymidine uptake proliferation assay, hCaEC; type: cell-based; details: Homo sapiens, Endothelial cell; read-out: hCaEC IC50 Mean ± SEM
Protocol: Experiments were performed to investigate interactions between zotarolimus (ABT-578) and paclitaxel when administered in combination. The effects of paclitaxel and zotarolimus on the anti-proliferative activity of human coronary artery smooth muscle ([…]) and endothelial […] determined using an in vitro proliferation assay. The proliferation and migration of vascular smooth muscle cells into the vascular neointima is a characteristic pathologic response seen in restenotic lesions (Lafont and Libby, 1998). As a result, in vitro assays which specifically measure the anti-proliferative activity of candidate anti-restenotic compounds on human coronary artery smooth muscle and endothelial cells predict potential anti-restenotic activity in vivo. To determine if paclitaxel attenuated or augmented the activity of zotarolimus the effect of paclitaxel and zotarolimus alone and in combination on growth-factor induced proliferation was determined. Data were analyzed for additivity using an isobologram approach and a combination index analysis. An isobologram is a Cartesian plot of pairs of doses that, in combination, yield a specified level of effect. It is a convenient way of graphically displaying results of drug-combination and similar studies, because paired values of experimental points that fall below or above the line connecting the axial points indicate synergistic and non-synergistic interactions, respectively. Cell proliferation was monitored by following incorporation of ^3H-thymidine into newly synthesized DNA of cells stimulated by serum and growth factors. Exponentially growing […] were seeded into 96-well flat bottom tissue culture plates at 5,000 cells/well (10,000 cells/well for […]). The cells were allowed to attach overnight. […] PerkinElmer; Wellesley; MA) was added to each filter well and the plates were counted using a TopCount microplate scintillation counter (PerkinElmer). […] The concentration eliciting a specific anti-proliferative effect was determined using a four-parameter equation (equation 1): […]

CO[C@H]1C[C@@H]2CC[C@@H](C)[C@@](O)(O2)C(=O)C(=O)N2CCCC[C@H]2C(=O)O[C@H]([C@H](C)C[C@@H]2CC[C@H](n3cnnn3)[C@H](OC)C2)CC(=O)[C@H](C)/C=C(\C)[C@@H](O)[C@@H](OC)C(=O)[C@H](C)C[C@H](C)/C=C/C=C/C=C/1C [zotarolimus]
IC50 [1]: 4.2 ± 1.7 nM | IC50 [2]: 3.6 ± 0.2 nM
